Where “and” joins values, the source holds several entries; their conditions need not be identical. Identical values can stand only once. Like-named read-outs stand apart in the source and are kept apart here.
Molecular target: T1, Human PAK1 (Homo sapiens, UniProt Q13153)
T1 construct: purchased Promega V4479
Test: PAK1 inhibitory activity, ADP-Glo kinase assay
Format: biochemical
Details: Human PAK1 25 ng, 10 min preincubation with test compound, 40 min with ATP/substrate mix, room temperature, luminescence
Method: The PAK inhibitory activities of the dehydrokawain compounds, mimosine or derivatives thereof and cucurbitacin I were determined. Assay of the PAK1 inhibitory activity was carried out using an ADP-Glo™ kinase assay kit (V4479, Promega, Madison, Wis.). Human PAK1 (10 μL) at a reaction concentration of 25 ng was incubated with 5 μL of the test compounds at the respective concentrations for 10 minutes. At the beginning of the reaction, 2.5×ATP/substrate mix (10 μL) was added and incubated for 40 minutes. The reaction was terminated by adding […]. In addition, 50 μL of Kinase detection reagent was added to cause the conversion of ADP to ATP and the emission reaction of freshly synthesized ATP. After incubation for 30 minutes, the intensity of emission in each well was measured by a Microplate Reader (MTP-880Lab, Corona) for 0.5 seconds as integration time. To the blank well was added all of the ingredients except for the test compounds and enzymes. The procedure was conducted at room temperature all the time. The inhibition rate was determined as the value on the kinase activity of control to which the inhibitor was not added.

[1] = read-out: IC50 (PAK1 inhibitory activity)

T1 sequence (Q13153 whole entry): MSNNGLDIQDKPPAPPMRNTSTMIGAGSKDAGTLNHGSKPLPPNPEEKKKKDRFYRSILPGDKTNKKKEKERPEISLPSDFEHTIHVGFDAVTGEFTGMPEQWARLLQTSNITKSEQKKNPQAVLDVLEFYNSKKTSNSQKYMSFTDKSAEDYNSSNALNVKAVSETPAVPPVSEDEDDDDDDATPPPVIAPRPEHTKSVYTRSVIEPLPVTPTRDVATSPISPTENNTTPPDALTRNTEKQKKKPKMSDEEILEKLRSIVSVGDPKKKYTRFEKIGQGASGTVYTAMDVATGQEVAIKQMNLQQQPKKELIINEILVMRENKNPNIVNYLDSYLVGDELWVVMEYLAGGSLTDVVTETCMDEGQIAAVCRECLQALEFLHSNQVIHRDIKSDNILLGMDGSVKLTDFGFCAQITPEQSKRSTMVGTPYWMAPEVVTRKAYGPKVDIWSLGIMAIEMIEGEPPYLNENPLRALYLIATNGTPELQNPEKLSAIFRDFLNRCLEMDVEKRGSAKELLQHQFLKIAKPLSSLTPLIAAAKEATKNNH

SMILES	IC50 (IC50 (PAK1 inhibitory activity))	IC50 [1]
CC(C)(O)/C=C/C(=O)[C@](C)(O)[C@H]1[C@H](O)C[C@@]2(C)[C@@H]3CC=C4C(C=C(O)C(=O)C4(C)C)[C@]3(C)C(=O)C[C@]12C (stereo partly shown) [Cucurbitacin I, cucurbitacin I]	19 µM	–
COc1cc(CCc2ccccc2)oc(=O)c1 [DDK, dihydro-5,6-dehydrokawain]	–	10 µM and 10.3 µM
COc1cc(/C=C/c2ccccc2)oc(=O)c1 [DK, 5,6-dehydrokawain]	–	17 µM and 17.1 µM
COc1cc(/C=C/c2ccc(OC)c(OC)c2)oc(=O)c1 [H1, 6-(3,4-dimethoxystyryl)-4-methoxy-2H-pyran-2-one]	–	1.6 µM
COc1cc(CCc2ccc(OC)c(OC)c2)oc(=O)c1 [H2, 6-(3,4-dimethoxyphenethyl)-4-methoxy-2H-pyran-2-one]	–	1.2 µM
COc1cc(CCc2ccc(O)c(O)c2)oc(=O)c1 [H3, 6-(3,4-dihydroxyphenethyl)-4-methoxy-2H-pyran-2-one]	–	2 µM
N[C@@H](Cn1ccc(=O)c(O)c1)C(=O)N[C@@H](Cc1ccccc1)C(=O)N[C@@H](Cc1ccccc1)C(=O)N[C@@H](Cc1ccc(O)cc1)C(=O)O [MFFY]	–	0.13 µM
N[C@@H](Cn1ccc(=O)c(O)c1)C(=O)N[C@@H](Cc1ccccc1)C(=O)N[C@@H](Cc1c[nH]c2ccccc12)C(=O)N[C@@H](Cc1ccc(O)cc1)C(=O)O [MFWY]	–	0.6 µM
N[C@@H](Cn1ccc(=O)c(O)c1)C(=O)N[C@@H](Cc1ccccc1)C(=O)N[C@@H](Cc1ccc(O)cc1)C(=O)N[C@@H](Cc1ccc(O)cc1)C(=O)O [MFYY]	–	2.3 µM
N[C@@H](Cn1ccc(=O)c(O)c1)C(=O)O [Mimosine, β-[N-(3-hydroxy-4-pyridone)]-α-aminopropionic acid]	–	37 µM
N[C@H](CO)Cn1ccc(=O)c(O)c1 [Mimosinol, mimosinol]	–	30 µM
O=c1c(O)c(-c2ccc(O)c(O)c2)oc2cc(O)cc(O)c12 [Quercetin, quercetin, reference compound]	–	340 µM
Oc1ccc(C=Cc2cc(O)cc(O)c2)cc1 [Resveratrol, resveratrol, reference compound]	–	15 µM

Source: patent US20170349548A1, “P21-ACTIVATED KINASE INHIBITOR” (Biosystem Consulting Limited Company, priority 2014, published 2017)
